Source: US8691280B2, “Microsphere comprising an organic lanthanide metal complex” (UMC Utrecht Holding B.V., priority 2007, dated 2014)

Assay: Determination of lanthanide (holmium, gadolinium) content of microspheres by complexometric titration and ICP-OES
Type: physicochemical
Settings: Table 1, measured composition
Method: The holmium content of the microspheres was determined using the complexometric titration for aluminium that has been described in the European Pharmacopoeia. In short, approximately 50 mg of the dried microspheres is accurately weighed, and dissolved in 1 N NaOH. To this solution 1 N HCl is added and the solution is diluted to 50 ml, 5 grams hexamethylentetramine is added and the pH is adjusted to 5, using 1 N HCl. Approximately 50 mg of xylenol orange is added as an indicator, and the solution is then titrated with 0.01 M EDTA, until the colour changes from purple to yellow. Analyses were performed in triplicate.
The holmium content was measured by inductively coupled plasma optical emission spectrometry (IPC-OES). The microspheres are weighed and destructed at 100° C. with 5 ml 1 N NaOH, which was evaporated to dryness. 15 ml of 2% Nitric acid was added followed by a 1 in 50 dilution. Samples were introduced in an Optima 4300 CV (PerkinElmer; Norwalk, USA) and […] was measured at three different wavelengths (345.600, 339.898 and 347.426 nm) to accurately determine the holmium content.
The gadolinium content of the GdAcAc microspheres was determined in the same way as described in Example 1.

## holmium acetylacetonate [HoAcAc crystals]
  Ho, measured elemental composition: 31.2 % w/w
